Assay results: patent US6599920B2, “Naphthalene compounds, intermediates, formulations, and methods” (Eli Lilly and Company, priority 1996, dated 2003)
Marks after values point to notes of the source that are not given here.

Legend:
ovariectomized rats = assay: Ovariectomized rat model of postmenopausal hyperlipidemia (serum cholesterol, uterine weight, uterine eosinophil peroxidase); type: in vivo
Method: Experimental models of postmenopausal hyperlipidemia are known in the art. […] to this invention is the ovariectomized rat model which is detailed in U.S. Pat. No. 5,464,845. Data presented in Table 1 show comparative results among ovariectomized rats, rats treated with 17-α-ethynyl estradiol (EE2), and rats treated with certain compounds of this invention. […] This uterine response to estrogen is well recognized in the art. As expressed in the data below, estrogenicity also was assessed by evaluating the response of eosinophil infiltration into the uterus. […] The data presented in Table 1 reflect the response per treatment group. In accordance with the above procedures, compounds of the present invention and ethynyl estradiol (EE2) in 20% hydroxypropyl β-cyclodextrin are orally administered to test animals.

[1] = tested on: MCF-7 breast adenocarcinoma cells; assay: MCF-7 Proliferation Assay; type: cell-based; conditions: Homo sapiens, MCF7; MCF-7 cells, 48 hours with drug; read-out: IC50, inhibition of tumor cell growth (tritiated thymidine uptake)
Method: MCF-7 breast adenocarcinoma cells (ATCC HTB 22) were maintained in MEM (minimal essential medium, phenol red-free, Sigma, St. Louis, Mo.) supplimented with 10% fetal bovine serum (FBS) (V/V), L-glutamine (2 mM), sodium pyruvate (1 mM), HEPES {(N-[2-hydroxyethyl]piperazine-N′-[2-ethanesulfonic acid]10 mm}, non-essential amino acids and bovine insulin (1 ug/mL) (maintenance medium). Ten days prior to assay, MCF-7 cells were switched to maintenance medium supplemented with 10% dextran coated charcoal stripped fetal bovine serum (DCC-FBS) assay medium) in place of 10% FBS to deplete internal stores of steroids. MCF-7 cells were removed from maintenance flasks using cell dissociation medium (Ca++/Mg++ free HBSS (phenol red-free) supplemented with 10 mM HEPES and 2 mM EDTA). Cells were washed twice with assay medium and adjusted to 80,000 cells/mL. Approximately […] (8,000 cells) were added to flat-bottom microculture wells (Costar 3596) and incubated at 37° C. in a 5% CO2 humidified incubator for 48 hours to allow for cell adherence and equilibration after transfer. Serial dilutions of drugs or DMSO as a diluent control were prepared in assay medium and […] to triplicate microcultures […]. […] Samples were counted by liquid scintillation using a Wallac BetaPlace β counter. […]

[2] = 0.1 mg/kg PO, in 20% hydroxypropyl β-cyclodextrin

Compound	Serum cholesterol (% Dec.), decrease versus ovariectomized controls (ovariectomized rats; 0.1 mg/kg PO)	Uterine EPO (Vmax), eosinophil peroxidase (ovariectomized rats; 0.1 mg/kg PO)	Uterine Wt. (% Inc.), uterine weight % increase versus the ovariectomized controls (ovariectomized rats; [2])	Effect on serum cholesterol (ovariectomized rats; oral, compared to ovariectomized animals)	Effect on uterine weight (ovariectomized rats; oral, compared to ovariectomized animals or EE2)	Eosinophil infiltration into the uterus (ovariectomized rats; oral, stromal layer of uteri)	Serum cholesterol (% Dec.), decrease versus ovariectomized controls (ovariectomized rats; 1 mg/kg PO)	Uterine EPO (Vmax), eosinophil peroxidase (ovariectomized rats; 1 mg/kg PO)	Uterine Wt. (% Inc.), uterine weight % increase versus the ovariectomized controls (ovariectomized rats; 1 mg/kg PO)	Serum cholesterol (% Dec.), decrease versus ovariectomized controls (ovariectomized rats; 10 mg/kg PO)	Uterine EPO (Vmax), eosinophil peroxidase (ovariectomized rats; 10 mg/kg PO)	Uterine Wt. (% Inc.), uterine weight % increase versus the ovariectomized controls (ovariectomized rats; 10 mg/kg PO)	IC50 [1] [nM]
C#C[C@]1(O)CC[C@H]2[C@@H]3CCc4cc(O)ccc4[C@H]3CC[C@@]21C [EE2, 17-α-Ethynyl-estradiol, reference compound]	87.5* %	133.8*	128.0* %	caused a decrease in serum cholesterol	substantially greater than the uterine weight of the ovariectomized animals	substantial and expected increase in eosinophil infiltration	–	–	–	–	–	–	–
COc1cccc(-c2ccc3cc(OC)ccc3c2Cc2ccc(OCCN3CCCCC3)cc2)c1.Cl [Ex. 1, [2-(3-Methoxyphenyl)-6-methoxynaphthalen-1-yl][4-[2-(1-piperidinyl)ethoxy]phenyl]methane Hydrochloride]	68.4* %	7.5	30.9* %	–	–	–	74.1* %	5.4	31.6* %	65.0* %	6.0	37.2* %	0.1
Cl.Oc1cccc(-c2ccc3cc(O)ccc3c2Cc2ccc(OCCN3CCCCC3)cc2)c1 [Ex. 2, [2-(3-Hydroxyphenyl)-6-hydroxynaphthalen-1-yl][4-[2-(1-piperidinyl)ethoxy]phenyl]methane Hydrochloride]	6.6%	4.8	37.6* %	–	–	–	28.6%	4.8	44.7* %	46.6* %	4.8	28.1* %	–
